Measurements published in ChEMBL document CHEMBL5303304, “EUbOPEN Chemogenomics Library - IncuCyte” (2023).

Key:
Assay type in all cases: toxicity, cell-based
[1] = tested on: HEK-293T; assay: Incucyte cell viability with HEK293T; details: human, 10 µM, compound concentration 10 uM
[2] = tested on: Fibroblast; assay: Incucyte cell viability with human fibroblast; details: 10 µM, compound concentration 10 uM
[3] = tested on: U2OS; assay: Incucyte cell viability with U2OS; details: human, 10 µM, compound concentration 10 uM
Further: unitless GR value; below 1 slowed growth and below 0 cell loss.

| Compound | Growth Rate ([1]; 6 h, replicate number 1) | Growth Rate ([1]; 6 h, replicate number 2) | Growth Rate ([1]; 12 h, replicate number 1) | Growth Rate ([1]; 12 h, replicate number 2) | Growth Rate ([1]; 18 h, replicate number 1) | Growth Rate ([1]; 18 h, replicate number 2) | Growth Rate ([1]; 24 h, replicate number 1) | Growth Rate ([1]; 24 h, replicate number 2) | Growth Rate ([2]; 12 h, replicate number 1) | Growth Rate ([2]; 12 h, replicate number 2) | Growth Rate ([2]; 18 h, replicate number 2) | Growth Rate ([2]; 24 h, replicate number 2) | Growth Rate ([3]; 0 h, replicate number 1) | Growth Rate ([3]; 18 h, replicate number 1) | Growth Rate ([3]; 24 h, replicate number 2) | Growth Rate ([2]; 18 h, replicate number 1) | Growth Rate ([2]; 24 h, replicate number 1) | Growth Rate ([3]; 6 h, replicate number 2) | Growth Rate ([3]; 12 h, replicate number 2) | Growth Rate ([3]; 18 h, replicate number 2) | other results |
| --- | --- | --- | --- | --- | --- | --- | --- | --- | --- | --- | --- | --- | --- | --- | --- | --- | --- | --- | --- | --- | --- |
| CNC(=O)c1c[nH]c2ccc(Nc3nccc(-c4ccccn4)n3)cc12 | 0.28 | 0.09 | 0.33 | 0.1 | 0.33 | 0.14 | 0.39 | 0.17 | 0.8 | 0.41 | 0.6 | 0.75 | 0.13 | 0.95 | 0.94 |  |  |  |  |  | Growth Rate ([2]; 0 h, replicate number 1): -1; Growth Rate ([2]; 6 h, replicate number 2): 0.18 |
| CCn1ccc(Nc2ncc3c(n2)-c2c(nn(C)c2-c2ccc(-c4cnn(C)c4)cc2Cl)CC3)n1 | -0.49 | -0.71 | -0.39 | -0.54 | -0.28 | -0.43 | -0.24 | -0.33 | 0.87 | 0.65 | 0.5 | 0.19 | -1 | 0.27 | -0.03 | 0.32 | 0.46 | 0.57 | 0.22 | 0.13 | Growth Rate ([2]; 0 h, replicate number 1): -1; Growth Rate ([2]; 6 h, replicate number 1): 0.64; Growth Rate ([3]; 24 h, replicate number 1): 0.21 |
| CN(C(=O)c1ccccc1)c1ccc2c(c1)nc(NC(=O)c1ccc(Br)s1)n2CCC(N)=O | 0.09 | 0.04 | 0.33 | 0.26 | 0.34 | 0.3 | 0.4 | 0.34 |  |  |  |  | -1 | 0.9 | 0.68 |  | 0.96 | 0.89 | 0.72 | 0.71 | Growth Rate ([2]; 0 h, replicate number 1): -0.8; Growth Rate ([2]; 0 h, replicate number 2): -0.39 |
| CN(C)CCCNc1ccnc(Nc2cccc(Cl)c2)n1 | -0.38 |  | -0.19 | -0.09 | -0.03 | 0.04 | 0.02 | 0.29 | 0.88 | 0.34 | 0.45 | 0.38 | -1 |  | 0.47 | 0.67 | 0.56 | 0.82 | 0.65 | 0.64 | Growth Rate ([2]; 0 h, replicate number 1): -0.99; Growth Rate ([2]; 0 h, replicate number 2): 0.25; Growth Rate ([2]; 6 h, replicate number 1): 0.3; Growth Rate ([2]; 6 h, replicate number 2): 0; Growth Rate ([3]; 6 h, replicate number 1): -0.98 |
| COC(=O)c1ccc2c(c1)NC(=O)/C2=C(\Nc1ccc(-c2nccn2C)cc1)c1ccccc1 | -0.53 | -0.73 | -0.37 | -0.51 | -0.26 | -0.37 | -0.09 | -0.27 |  |  |  |  | -1 | 0.46 | 0.46 |  |  | 0.77 | 0.61 | 0.62 | Growth Rate ([2]; 0 h, replicate number 1): -1; Growth Rate ([3]; 6 h, replicate number 1): 0.57; Growth Rate ([3]; 12 h, replicate number 1): 0.53; Growth Rate ([3]; 24 h, replicate number 1): -0.6 |
| Cc1cc(C2CCCNC2)ccc1Nc1ncc(Br)c(NCc2cccc3c2C(C)(C)C(=O)N3)n1 (centres undefined) | 0.39 | 0.05 | 0.08 | 0.09 | 0.07 | 0.12 | -0.01 | 0.13 |  | 0.81 | 0.49 | 0.32 | -0.95 | 0.88 | 0.37 | 0.61 | 0.34 | 0.86 | 0.61 | 0.46 | Growth Rate ([3]; 24 h, replicate number 1): 0.8 |
| CN1CCN(C(=O)Cc2ccc(N/C(=C3\C(=O)Nc4cc(Cl)ccc43)c3ccccc3)cc2)CC1 | 0.26 | 0.83 | 0.71 | 0.92 | 0.84 | 0.82 | 0.8 | 0.73 | 0.24 | 0.01 | 0.21 | 0.28 |  |  | 0.58 | 0.44 | 0.48 | 0.9 | 0.86 | 0.7 | Growth Rate ([2]; 0 h, replicate number 2): 0.06; Growth Rate ([2]; 6 h, replicate number 1): 0.12; Growth Rate ([2]; 6 h, replicate number 2): -0.1 |
| CC(=O)N(CCN(C)C)c1ccc(N/C(=C2\C(=O)Nc3cc(Cl)ccc32)c2ccccc2)cn1 | -0.78 | -0.92 | -0.58 | -0.71 | -0.45 | -0.55 | -0.37 | -0.42 | -0.65 | -0.8 | -0.76 | -0.72 |  | 0.02 | -0.13 | -0.63 | -0.58 | 0.34 | 0.23 | 0.1 | Growth Rate ([2]; 0 h, replicate number 2): -1; Growth Rate ([2]; 6 h, replicate number 1): -0.62; Growth Rate ([2]; 6 h, replicate number 2): -0.8; Growth Rate ([3]; 6 h, replicate number 1): -0.35; Growth Rate ([3]; 12 h, replicate number 1): 0.03; Growth Rate ([3]; 24 h, replicate number 1): -0.14 |
| COCCN1CCN(CCn2ccc(Nc3ncc4c(n3)-c3c(nn(C)c3-c3ccccc3)C[C@H]4C)n2)CC1 | -0.53 | -0.51 | -0.36 | -0.33 | -0.28 | -0.32 | -0.17 | -0.22 | 0.47 | 0.24 | 0.31 | 0.41 |  | 0.7 | 0.5 | 0.37 | 0.52 | 0.25 | -0.9 | -0.83 | Growth Rate ([2]; 0 h, replicate number 2): 0.9; Growth Rate ([2]; 6 h, replicate number 1): 0.35; Growth Rate ([2]; 6 h, replicate number 2): 0.5; Growth Rate ([3]; 6 h, replicate number 1): 0.91; Growth Rate ([3]; 12 h, replicate number 1): -0.73; Growth Rate ([3]; 24 h, replicate number 1): 0.85 |
